Experimental data published in publication PMC4339887, “Selective Sirt2 inhibition by ligand-induced rearrangement of the active site” (Nature Communications, 2015).
Entries after “also recorded” stand apart in the source; their conditions may differ.

What was measured:
[1] = tested on: acetylation of the microtubule network in HeLa cells; assay: immunofluorescence microscopy of acetylated microtubule network; format: cell-based; conditions: 4 h
From the text: Cells were then stained with an anti-acetyl-α-tubulin antibody (Sigma-Aldrich, T6793) and then probed with a secondary Alexa 546 conjugated anti-mouse-antibody (Invitrogen). Nuclei were counterstained with DAPI (4',6-diamidino-2-phenylindole). Coverslips were mounted with FluoroMount (Sigma-Aldrich) and sealed with DPX Mountant (Sigma-Aldrich). Images of the mounted samples were acquired on a Leica DM500 microscope equipped with a Leica DFC 395 FX camera and HBO 100 W lamp[40]. The microscope was run with the Leica Application Suite 4.4.0 software. Chroma UV filter set (No. C40888) and Leica N2.1 filter set (No. 513832) were used for DAPI and Alexa 546 signal acquisition, respectively, with a HCX FL Fluotar 40x/0.75 (dry) objective. Further details about the equipment and the settings that were used to acquire the images are found in the Supplementary Methods section. Unprocessed images are found in Supplementary Fig. 9. […]
Immunocytochemistry equipment and settings. The signal of Alexa 546 and DAPI of the same region were acquired with constant illumination parameters as grayscale 8-bit 600 dpi tiff files (1600u 1200 pixels). Alexa 546 was acquired after 639.1 ms with a gamma factor of 0.65 without multiplying. The gain was set to 1. DAPI-stained images were acquired after about 20 ms with the same parameters as the one for Alexa 546 image acquisition. The temperature in the microscope room was kept at RT. Representative regions of each samples were processed with Adobe Photoshop CS2 to generate images in RGB mode by copying the appropriate original greyscale images to the blue (nuclei, DAPI) and the red (acetylated D-tubulin signal, Alexa 546) channel, respectively. As adjustment, a minimal background subtraction was applied on all images during processing in the same manner. The resolution was changed from 600 dpi (source images) to 450 dpi without resampling (Fig. 7 of the main article). LUT (CLUT) of grayscale images of the acetylated D-tubulin signal and of the DAPI signal are shown in Supplementary Fig. 8. […]

human Sirt1 = molecular target: T1, human Sirt1 (Homo sapiens, UniProt Q96EB6); assay: fluorescence-based in vitro sirtuin assay, substrate ZMAL; conditions: at 50 μM
T1 sequence (Q96EB6 133-747): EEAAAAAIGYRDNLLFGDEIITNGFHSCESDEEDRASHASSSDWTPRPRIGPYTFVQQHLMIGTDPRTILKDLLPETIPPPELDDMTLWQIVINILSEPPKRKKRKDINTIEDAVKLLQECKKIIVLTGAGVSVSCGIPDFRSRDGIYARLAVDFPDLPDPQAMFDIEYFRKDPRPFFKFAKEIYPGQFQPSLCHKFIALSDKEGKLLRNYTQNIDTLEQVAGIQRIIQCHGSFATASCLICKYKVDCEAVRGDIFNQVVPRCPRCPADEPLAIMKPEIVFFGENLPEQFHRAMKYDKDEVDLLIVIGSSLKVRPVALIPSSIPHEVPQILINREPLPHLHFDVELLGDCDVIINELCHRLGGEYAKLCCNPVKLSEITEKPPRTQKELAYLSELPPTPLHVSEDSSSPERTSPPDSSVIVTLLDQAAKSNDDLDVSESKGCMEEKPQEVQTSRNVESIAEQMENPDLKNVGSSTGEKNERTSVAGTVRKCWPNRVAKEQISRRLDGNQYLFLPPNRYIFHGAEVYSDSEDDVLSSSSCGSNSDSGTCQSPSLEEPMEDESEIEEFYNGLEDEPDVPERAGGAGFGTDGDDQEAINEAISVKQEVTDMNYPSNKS

Sirt3 = tested on: Sirt3; design: method as in earlier work; conditions: selectivity profile, Sirt3 entry; † inhibition substrate-dependent; ref 2-9 (supplementary references); cited from earlier work
Sirt1 = tested on: Sirt1; design: method as in earlier work; conditions: selectivity profile, Sirt1 entry; ref 2-9 (supplementary references); cited from earlier work
Sirt2 = molecular target: Sirt2; design: method as in earlier work; conditions: ref 2-9 (supplementary references), cited from earlier work
[2] = tested on: p53-Lys382-acetylation in U2OS cells; assay: p53 acetylation after ultraviolet exposure, western blot; format: cell-based; conditions: 1 h pretreatment, 20 J cm^-2 UV, further 6 h
Method: U2OS cells (ATCC accession no. HTB-96) were seeded and cultured until they reached 90% confluency. […] Cells were incubated for an additional 6 h in the presence of the inhibitor and then lysed in IPLS (50 mM Tris/HCl, 150 mM NaCl; 0.5 mM EDTA; 0.5% (v/v) NP-40; 1 × Complete Protease Inhibitors (Roche), pH 8.0) and resuspended in 1 × Laemmli Buffer. Samples were then separated on SDS–PAGE, transferred to a nitrocellulose membrane (Bio-Rad), blocked with non-fat dry milk (Roth, 5% (w/v), TBS, 0.1% (v/v) Tween 20) and probed with anti-acetyl-p53 K382 (Cell Signaling, #2522), anti-p53 DO.1 (Santa Cruz Biotechnology, sc-126) and anti-vinculin (Cell Signaling, #4650) as a loading control. Uncropped blots are shown in the Supplementary Fig. 10.

[3] = tested on: mitochondrial lysine-acetylation in HEK293 cells; assay: mitochondrial protein acetylation, western blot of mitochondrial extracts; format: cell-based; conditions: 16 h
Method: page 27: Cell cultiva tion. HEK-293 cells (ATCC accession no. CRL-1573) were grown in Dulbecco's modified Eagle's medium (DMEM, PAA) containing 10% (vol/vol) fetal calf serum (FCS, PAA), 1% (vol/vol) penicillin (PAA), 1% (vol/vol) streptomycin (PAA), 1% (vol/vol), L- glutamine (PAA) at 37 °C in a 5% (vol/vol) CO2 atmosphere. Mitochondrial extra ction. HEK-293 cells (ATCC accession no. CRL-1573) were treated with nicotinamide or […]2 at the indicated concentrations for 16 h. Cells were washed in PBS and lysed in 5 packed cell volumes of lysis buffer (20 mM HEPES/KOH, 250 mM sucrose; 10 mM KCl, 1.5 mM MgCl2, 1 mM EDTA, 1 mM EGTA, 1 mM DTT; 0.1 mM PMSF, 1uComplete Protease Inhibitor Cocktail (Roche), pH 7.5). Cells were then homogenized in a Dounce homogenizer and 10% (vol/vol) of sample was removed for use as whole cell extract (WCE). To the remaining lysate, unbroken cells and nuclei were removed by centrifugation (10 min, 800g). The supernatant was transferred and centrifuged (10 min, 7,000g) to pellet mitochondria. Mitochondria were washed twice in lysis buffer, repeating centrifugation after each wash, followed by resuspending washed mitochondria in lysis buffer. […] Lysates were cleared by centrifugation, protein concentrations were quantitated and normalized with 1u Laemmli Buffer. […]

human Sirt2 = molecular target: T2, human Sirt2 (Homo sapiens, UniProt Q8IXJ6); assay: fluorescence-based in vitro sirtuin assay, substrate ZMAL
T2 sequence (Q8IXJ6 25-389): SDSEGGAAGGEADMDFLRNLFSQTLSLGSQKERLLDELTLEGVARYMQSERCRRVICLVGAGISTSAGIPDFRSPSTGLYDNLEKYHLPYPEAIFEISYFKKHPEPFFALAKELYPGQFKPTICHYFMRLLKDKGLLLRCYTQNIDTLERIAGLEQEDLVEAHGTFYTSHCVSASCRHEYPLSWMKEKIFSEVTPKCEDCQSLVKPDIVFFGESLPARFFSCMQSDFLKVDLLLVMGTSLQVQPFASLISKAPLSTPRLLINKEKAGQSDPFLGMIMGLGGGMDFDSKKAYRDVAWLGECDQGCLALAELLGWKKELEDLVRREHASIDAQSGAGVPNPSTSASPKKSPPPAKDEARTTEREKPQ

BubR1 in HeLa cells = assay: abundance of BubR1, western blot; format: cell-based; conditions: various concentrations, 16 h
Method: Cells were washed with PBS, lysed in IPLS (50 mM Tris/HCl, 150 mM NaCl, 0.5 mM EDTA, 0.5% (v/v) NP-40, pH 7.5, supplemented with Complete protease inhibitors (Roche)). Samples were pelleted and resuspended in 1 × SDS–PAGE sample buffer and heated (95 °C, 5 min). Cell samples were separated using SDS–PAGE (10% (w/v) polyacrylamide), transferred to a nitrocellulose membrane (Bio-Rad), blocked with non-fat dry milk (Roth, 5% (w/v), TBS, 0.1% (v/v) Tween 20) and probed with the anti-BubR1 (1:5,000, BD Biosciences, 612502) and anti-tubulin (1:5,000, Sigma-Aldrich, T5168) as a loading control. Uncropped blots are shown in the Supplementary Fig. 8.

[4] = tested on: α-tubulin acetylation in HeLa cells; assay: tubulin acetylation, western blot; format: cell-based; conditions: various concentrations, 5 h
From the text: Cell samples were then separated using SDS–PAGE (12.5% (w/v) polyacrylamide), transferred to an activated nitrocellulose membrane (Bio-Rad), blocked with non-fat dry milk (Roth, 5% (w/v), TBS, 0.1% (v/v) Tween 20) and probed with an anti-acetyl-α-tubulin antibody (1:1,000, Sigma-Aldrich, T6793) and an anti-GAPDH antibody (1:2,000–1:5,000, Sigma-Aldrich, G9545) as a loading control (Fusion SL, peqlab). An uncropped blot is shown in Supplementary Fig. 8.

In the case of `N#C/C(=C\c1ccc(-c2cc(Cl)ccc2Cl)o1)C(=O)Nc1cccc2ncccc12` [AGK2, reference compound], the “acetylation level of the microtubule network” value ([1]; 20 μM) is reported as “hyperacetylation of the microtubule network” and the “activity of Sirt1” value (human Sirt1) is reported as “not affected”.
In the case of `NC(=O)[C@H]1CCCCc2c1[nH]c1ccc(Cl)cc21` [CHIC-35], the “Selectivity Sirt1/Sirt2/Sirt3 (fold): Sirt3” value (Sirt3) is listed as over 833 fold, the “Selectivity Sirt1/Sirt2/Sirt3 (fold): Sirt1” value (Sirt1) is listed as 1 fold and the “IC50/kd for Sirt2” value (Sirt2; published values, Supplementary Table 1) is listed as 2.4 µM. The “Selectivity Sirt1/Sirt2/Sirt3 (fold): Sirt2” value (Sirt2; selectivity profile, Sirt2 entry) was 23 fold.
In the case of `NC(=O)c1cccnc1` [NCA, nicotinamide, reference compound], the “acetylation of p53 (Lys382) after ultraviolet exposure” value (from here on “acetylation of p53 (Lys382)”) [2] is reported as “further increased”, the “acetylation of p53 (Lys382)” value ([2]; listed as nicotinamide) is reported as “increase” and the “acetylation of mitochondrial proteins” value [3] is reported as “increase”.
For `O=C(Nc1ccccc1-c1cn2c(CN3CCNCC3)csc2n1)c1cnc2ccccc2n1` [SRT1720], the “Selectivity Sirt1/Sirt2/Sirt3 (fold): Sirt3” value (Sirt3) is given as 1 fold and the “Selectivity Sirt1/Sirt2/Sirt3 (fold): Sirt1” value (Sirt1) is given as “activation”.
For `O=C(CSc1ncccn1)Nc1ncc(Cc2cccc3ccccc23)s1` [SirReal3], the IC50 (human Sirt2) was 2.3 µM.
Work on `O=C(CSc1ncccn1)Nc1ncc(Cc2ccccc2)s1` [SirReal4] yielded an IC50 (human Sirt2) of 16.8 µM.
In the case of `Cc1cc(C)cc(SCC(=O)Nc2ncc(Cc3cccc4ccccc34)s2)c1` [SirReal5], the “abundance of BubR1” value (BubR1 in HeLa cells) is reported as “did not influence”, the “acetylation of p53 (Lys382)” value [2] is reported as “did not observe an increase” and the IC50 (human Sirt2) is reported as over 50 µM.
In the case of `Cc1cc(C)nc(SCC(=O)N(C)c2ncc(Cc3cccc4ccccc34)s2)n1` [SirReal6], the “level of α-tubulin acetylation” value [4] is reported as “not”, the “abundance of BubR1” value (BubR1 in HeLa cells) is reported as “did not influence” and the “acetylation of p53 (Lys382)” value [2] is reported as “did not observe an increase”. For the same compound, the IC50 (human Sirt2) was over 100 µM and the “acetylation level of the microtubule network” value ([1]; 50 μM) was “does not alter; also recorded: no substantial change”.
